Reference: US20100137346A1, “DESFE[…] ACTINIDE DEC[…]” (priority 2006, published 2010)
Where two headings read alike, the source gives them in different places.

What was measured:
[1] = cited from earlier work; for relative percentages of the iron excreted in the stool and urine / Iron Clearing Efficiency (%): orally to C. apella primates, 150 μmol/kg, data from ref 19 / ref 17
[2] = in vivo; cited from earlier work
[3] = rats, same dose; cited from earlier work
[4] = Chelator-induced uranium excretion (urine + bile, 24 h) in bile duct-cannulated rat model; type: in vivo; conditions: for uranium excretion, in words: IP 300 μmol/kg, given 0.5 h post metal
Procedure: (§1) Desferrithiocin Analogue Induced Excretion of Uranium. In order to compare results with previous chelator-induced iron excretion data, the uranium clearance studies were carried out in a bile duct-cannulated rat model. The animals were given uranyl acetate dihydrate SC at a dose of 5 mg/kg (the actual dose of uranium is 2.8 mg/kg). Bile and urine samples were collected for 24 hours after dosing. Kidneys were removed from selected animals and tissue uranium concentration measured. At least three animals were utilized in each experimental group. Data from two separate control studies (uranyl acetate/ no chelator) have now been combined for a total of 14 control animals. All uranium concentrations were measured using ICPMS. The data are reported as the total quantity of uranium excreted [urine +bile]; the mode of excretion [urine/bile] is also given. In addition the percentage of the administered dose of uranium cleared and chelator-induced uranium excretion vs the controls is also given. Four positive controls were evaluated: DTPA (13, Table 1) given as its trisodium calcium salt, DFO (14), N,N′-bis(2hydroxybenzyl)ethylenediamine-N,N′-diacetic acid, monosodium salt (NaHBED, 15) and the hydroxypyridone CP94 (16) shown to bind uranium [Pashalidis, et al., Effective complex formation in the interaction of 1,2-dimethyl-3-hydroxypyrid-4-one (Deferiprone or L1) with uranium(VI), Journal of Radioanalytical and Nuclear Chemistry 1999; 242:181-184.] The total metal cleared after 24 h in control rats was 10% of the administered dose. When DTPA, 13, was given IP or PO at 300 μmol/kg immediately after uranium, the excretion was 17% and 8% of the administered dose respectively (p>0.05). However, when the drug was given IP at a dose of 600 μmol/kg immediately post-metal, the uranium excretion was significant, 20% (p<0.005). This is consistent with previously published data using a similar animal model.[Domingo, et al., Comparative effects of the chelators sodium 4,5-dihydroxybenzene-1,3-disulfonate (Tiron) and diethylenetriaminepentaacetic acid (DTPA) on acute uranium nephrotoxicity in rats, Toxicology 1997; 118:49-59] DFO (14) and CP94 (16) given IP immediately post uranyl acetate were ineffective.
Desferrithiocin Analogue-Induced Excretion of Uranium. In order to compare results with previous chelator-induced iron excretion data, the uranium clearance studies were carried out in a bile duct-cannulated rat model. The animals were given uranyl acetate dihydrate SC at a dose of 5 mg/kg (the actual dose of uranium is 2.8 mg/kg). Bile and urine samples were collected for 24 hours after dosing. Kidneys were removed from selected animals and tissue uranium concentration measured. At least three animals were utilized in each experimental group. Data from two separate control studies (uranyl acetate/ no chelator) are combined for a total of 14 control animals. All uranium concentrations were measured using ICPMS. The data are reported as the total quantity of uranium excreted [urine +bile]; the mode of excretion [urine/bile] is also given. In addition the percentage of the administered dose of uranium cleared and chelator-induced uranium excretion vs the controls is also given. Four positive controls were evaluated: DTPA (1, Table 1) given as its trisodium calcium salt, DFO (2), N,N -bis(2-hydroxybenzyl)ethylenediamine-N,N-diacetic acid, monosodium salt (NaHBED, 3) and the hydroxypyridone CP94 (4) shown to bind uranium. The total metal cleared after 24 h in control rats was 10% of the administered dose. When DTPA, 1, was given IP or PO at 300 μmol/kg immediately after uranium, the excretion was 17% and 8% of the administered dose respectively (p>0.05). However, when the drug was given IP at a dose of 600 μmol/kg immediately post metal, the uranium excretion was significant, 20% (p<0.005). This is consistent with previously published data using a similar animal model.^2 DFO (2) and CP94 (4) given IP immediately post uranyl acetate were ineffective.

[5] = Renal uranium content in uranyl acetate-treated bile duct-cannulated rats (FIG. 3); type: in vivo, rat
Procedure: as §1
The most promising analogue in the (S)-2-(2,4-dihydroxyphenyl)-4,5-dihydro-4-thiazolinecarboxylic series is the methoxy analogue (S)-4′-(CH3O)-DADMDFT (11). Given IP at 300 μmol/kg 0.5 h before uranyl acetate or immediately thereafter, nearly 30% of the metal was cleared (Table 1). This was also true if the drug was given IP 0.5 or 2 h post metal. The drug retains some efficacy given 4 h post uranium; 16% of the metal is excreted (p<0.006). When the chelator was given SC immediately post uranium, 40% of the administered metal was cleared. The increased excretion is probably associated with a slower absorption of the ligand. The data from rodents given the drug orally is even more encouraging (Table 1). […] The most profound data are associated with uranium decorporation from the kidneys (FIG. 3). When DTPA is given IP or PO at a dose of 300 μmol/kg immediately post metal, there is no reduction in renal uranium relative to controls. However, (S)-4′-(CH3O)-DADMDFT (11) given orally at a dose of 300 μmol/kg immediately post metal reduces renal uranium by 37% (p<0.005).
There is a small (16%) reduction when the drug is given PO at a dose of 300 μmol/kg 2 h post uranium. However, when 11 is given PO at a dose of 600 μmol/kg 0.5 h post metal, the renal uranium content is reduced by 76% (p<0.001). When given PO at the same dose 1 h post uranium exposure, the reduction is still significant, 42% (p<0.006). In all sets of ligands, the most lipophilic chelator is always the most toxic. […] On the basis of this finding, a less lipophilic, more water-soluble ligand than 12 was assembled, (S)-4′-(HO)-DADFT-PE (18, Table 1), a polyether analogue.

[6] = in vivo; cited from earlier work; remark: listed apart in the source
[7] = iron-overloaded C. apella primate
[8] = Rattus norvegicus, ip, 24 h, 300 μmol/kg IP Immediate, read-out: Chelator-Induced U Excretion/Control

## COc1ccc(C2=N[C@@H](C(=O)O)CS2)c(O)c1 [drawing 24]
[1]
  relative percentages of the iron excreted in the stool and urine: 81/19
  Iron Clearing Efficiency (%): 16.2 ± 3.2%

## O=C(O)[C@H]1CSC(c2ccccc2O)=N1 [Compound 4, (S)-4,5-dihydro-2-(2-hydroxyphenyl)-4-thiazolecarboxylic acid]
[2]
  toxicity, in words: Severe gastrointestinal (GI) toxicity
[1]; administered PO at a dose of 150 μmol/kg
  ICE: 12.4%
[1]; [7]
  ICE: 12%
[3]
  outcome of planned 10-day dosing regimen: dead by day 5

## COc1ccc(C2=N[C@@](C)(C(=O)O)CS2)c(O)c1 [drawing 25]
[1]
  relative percentages of the iron excreted in the stool and urine: 91/9
  Iron Clearing Efficiency (%): 24.4 ± 10.8%

## O=C(O)CN(CCN(CC(=O)O)CC(=O)O)CCN(CC(=O)O)CC(=O)O [DTPA, diethylenetriaminepentaacetic acid, reference compound]
[4]; 300 μmol/kg IP Immediate
  % of Administered Dose Cleared: 17%
[4]; 300 μmol/kg PO Immediate
  % of Administered Dose Cleared: 8%
[4]; 600 μmol/kg IP Immediate
  % of Administered Dose Cleared: 20%
[5]; IP 300 μmol/kg immediately post metal
  reduction in renal uranium relative to controls: no reduction
[5]; PO 300 μmol/kg immediately post metal
  reduction in renal uranium relative to controls: no reduction

## C[C@]1(C(=O)O)CSC(c2ccc(O)cc2O)=N1 [Compound 10, (S)-2-(2,4-dihydroxyphenyl)-4,5-dihydro-4-methyl-4-thiazolecarboxylic acid]
[4]; 300 μmol/kg IP Immediate
  % of Administered Dose Cleared: 19%
[1]; C. apella model
  iron-clearing activity, in words: compatible with iron clearance
[1]; given orally to the primates at an iron binding equivalent dose
  ICE: 13.4±5.8%
[3]
  outcome of planned 10-day dosing regimen: did not display any frank toxicity

## C[C@]1(C(=O)O)CSC(c2ccc(O)cc2O)=N1 [drawing 23]
[1]
  relative percentages of the iron excreted in the stool and urine: 86/14
  Iron Clearing Efficiency (%): 13.4 ± 5%

## COCCOCCOCCOc1ccc(C2=N[C@@](C)(C(=O)O)CS2)c(O)c1 [drawing 21]
[4]; 300 μmol/kg IP Immediate
  Uranium Excretion: 626 ± 123 µg/kg
  Uranium Excretion [urine/bite]: 35/65
[4]; [8]
  response vs control in vivo at 300 µmol/kg: 220%

## O=C(O)[C@H]1CSC(c2ncccc2O)=N1 [Compound 2, (S)-4,5-dihydro-2-(3-hydroxy-2-pyridinyl)-4-thiazolecarboxylic acid]
[1]; [7]
  ICE: 4.8%

## CCC1=C(O)C(=O)CCN1CC [drawing 7]
[4]; 450 μmol/kg IP Immediate
  % of Administered Dose Cleared: 11%
  Uranium Excretion: 302 ± 171 µg/kg
  Uranium Excretion [urine/bite]: 100/0
[4]; Rattus norvegicus, ip, 24 h, 450 μmol/kg IP Immediate, read-out: Chelator-Induced U Excretion/Control
  response vs control in vivo at 450 µmol/kg: 110%

## CC1(C)SC(c2ccccc2O)=N[C@@H]1C(=O)O [drawing 9]
[4]; 300 μmol/kg IP 0.5 h Post
  % of Administered Dose Cleared: 7%
  Uranium Excretion: 200 ± 47 µg/kg
  Uranium Excretion [urine/bite]: [37/63]
[4]; 300 μmol/kg IP Immediate
  % of Administered Dose Cleared: 26%
  Uranium Excretion: 743 ± 189 µg/kg
  Uranium Excretion [urine/bite]: 8/92
[4]; Rattus norvegicus, ip, 24 h, 300 μmol/kg IP 0.5 h Post, read-out: Chelator-Induced U Excretion/Control
  response vs control in vivo at 300 µmol/kg: 70%
[4]; [8]
  response vs control in vivo at 300 µmol/kg: 260%

## C[C@@]1(C(=O)O)CSC(c2ccc(O)cc2O)=N1 [drawing 13]
[4]; 300 μmol/kg IP Immediate
  % of Administered Dose Cleared: 19%

## C[C@@]1(C(=O)O)CSC(c2ccc(O)cc2O)=N1 [drawing 10]
[4]; 300 μmol/kg IP Immediate
  % of Administered Dose Cleared: 19%
  Uranium Excretion: 523 ± 180 µg/kg
  Uranium Excretion [urine/bite]: 92/8
[4]; [8]
  response vs control in vivo at 300 µmol/kg: 190%

## CC1(C)SC(c2ccccc2O)=N[C@@H]1C(=O)O [drawing 20]
[4]; 300 μmol/kg IP 0.5 h Post
  % of Administered Dose Cleared: 7%
  Chelator-Induced U Excretion/Control: 0.7
  Uranium Excretion: 200 ± 47 µg/kg
  Uranium Excretion [urine/bite]: 37/63
[4]; 300 μmol/kg IP Immediate
  % of Administered Dose Cleared: 26%
  Chelator-Induced U Excretion/Control: 2.6
  Uranium Excretion: 743 ± 189 µg/kg
  Uranium Excretion [urine/bite]: 8/92

## C[C@]1(C(=O)O)CSC(c2ccccc2O)=N1 [Compound 3, (S)-4,5-dihydro-2-(2-hydroxyphenyl)-4-methyl-4-thiazolecarboxylic acid]
[2]
  toxicity, in words: Severe gastrointestinal (GI) toxicity
[1]; [7]
  ICE: 13%
[3]
  outcome of planned 10-day dosing regimen: dead by day 5

## O=C(O)[C@H]1CSC(c2ccc(O)cc2O)=N1 [drawing 22]
[1]
  relative percentages of the iron excreted in the stool and urine: 70/30
  Iron Clearing Efficiency (%): 4.2 ± 1.4%

## COc1ccc(C2=N[C@@](C)(C(=O)O)CS2)c(O)c1 [Compound 12, (S)-4,5-dihydro2-(2-hydroxy-4-methoxyphenyl)4-methyl-4-thiazolecarboxylic acid]
[4]; 300 μmol/kg IP Immediate
  % of Administered Dose Cleared: 20%
[4]
  uranium excretion, in words: within error of control
[2]
  toxicity, in words: too toxic for clinical consideration
[1]; in both rodents and primates
  iron-clearing efficiency, in words: excellent iron-clearing efficiency
[6]
  metabolite formed by metabolic O-demethylation: (S)-4′-(HO)-DADFT (10)

## CC1(C)SC(c2ccccc2O)=NC1C(=O)O (stereo in doubt) [Compound 17, (S)-4,5-dihydro-5,5-dimethyl-2-(2-hydroxyphenyl)-4-thiazolecarboxylic acid]
[4]; 300 μmol/kg IP Immediate
  % of Administered Dose Cleared: 26%
[4]
  uranium excretion, in words: insignificant

## desferrioxamine [DFO, reference compound]
[4]; given IP immediately post uranyl acetate, doses per Table 1
  uranium clearance, in words: ineffective
[1]; subcutaneous administration, iron-loaded Cebus apella primate
  ICE: 5.0±2.6%
